# Assay: Dissolution performance test: solubility in 3-ethyl-3-hydroxymethyl oxetane monomer
# Format: physicochemical
# Settings: Table 3; maximum number of grams dissolved in 100 g 3-ethyl-3-hydroxymethyl oxetane monomer at 20° C.
# Method: The solubility in 3-ethyl-3-hydroxymethyl oxetane monomer was tested for Compound A-1 to A-38 and C-1 to C-25, and comparative compounds B-1 and B-2 as well as D-1 and D-2 in the present invention, calculated based on the maximum number of grams dissolved in 100 g solvent at 20° C.
row,Compound,Solubility
1,COc1ccc([S+](c2ccc(C)c(F)c2)c2ccc(C)c(F)c2)cc1 [Compound A-1],25.7 g
2,Cc1ccc(-[s+]2c3ccccc3c(=O)c3cc(C(C)C)ccc32)cc1F (stereo not shown) [Compound A-2],23.5 g
3,Cc1ccc([S+](c2ccc(C)c(F)c2)c2ccc(C)c(F)c2)cc1 [Compound A-3],22.5 g
4,Cc1ccc([S+](c2ccccc2)c2ccccc2)cc1F [Compound A-4],19.5 g
5,Fc1ccc([S+](c2ccccc2)c2ccccc2)cc1F [Compound A-5],19.1 g
6,Cc1ccc([S+](c2ccccc2)c2ccccc2)cc1C(F)(F)F [Compound A-6],19.2 g
7,CC(=O)c1ccc([S+](c2ccccc2)c2ccc(C)c(C#N)c2)cc1 (stereo not shown) [Compound A-7],20.6 g
8,COc1ccc([S+](c2ccc(C(C)=O)cc2)c2ccc(C(C)=O)cc2)cc1F [Compound A-8],23.4 g
9,Cc1ccc([S+](c2ccc(OCCO)cc2)c2ccc(C)c(F)c2)cc1F [Compound A-9],24.3 g
10,Cc1ccc([SH](c2ccc(C)c(F)c2)c2ccc(C)c(F)c2)cc1F [Compound A-10],23.8 g
11,Cc1ccc([S+](c2ccc(C)c(F)c2)c2ccc(C)c(F)c2)cc1 [Compound A-11],21.6 g
12,Cc1ccc([S+](c2ccc(Sc3ccccc3)cc2)c2ccc(C)c(F)c2)cc1F [Compound A-12],24.5 g
13,Cc1ccc([S+](c2ccc(Oc3ccccc3)cc2)c2ccc(C)c(F)c2)cc1F [Compound A-13],23.8 g
14,Cc1ccc([S+](c2ccc(Cc3ccccc3)cc2)c2ccc(C)c(F)c2)cc1F [Compound A-14],23.5 g
15,Cc1ccc([S+](c2ccc(-c3ccccc3)cc2)c2ccc(C)c(F)c2)cc1F [Compound A-15],23.4 g
16,CC(=O)c1cc([SH](c2ccc(Sc3ccccc3)cc2)c2ccc(C)c(C(C)=O)c2)ccc1C [Compound A-16],22.6 g
17,Cc1ccc([S+](c2ccc(C)c(C#N)c2)c2ccc(C)c(C#N)c2)cc1C [Compound A-18],23.2 g

row,Compound,Solubility
1,Cc1ccc([S+](c2ccc(Sc3ccccc3)cc2)c2ccc(C)c(C(=O)Cl)c2)cc1C(=O)Cl [Compound A-19],24.3 g
2,Fc1ccc([S+](c2ccccc2)c2ccc(Sc3ccccc3)cc2)cc1F (stereo not shown) [Compound A-20],19.8 g
3,Cc1ccc([S+](c2ccccc2)c2ccc(-c3ccccc3)cc2)cc1F (stereo not shown) [Compound A-21],20.1 g
4,Cc1ccc([S+](c2ccc(C)c(F)c2)c2ccc3c(c2)Cc2ccccc2-3)cc1F [Compound A-22],22.3 g
5,Cc1ccc([S+](c2ccc(C)c(F)c2)c2ccc3oc4ccccc4c3c2)cc1F [Compound A-24],23.1 g
6,Cc1ccc([S+](c2ccc(Sc3ccccc3)cc2)c2ccc(C)c([N+](=O)[O-])c2)cc1[N+](=O)[O-] [Compound A-27],22.3 g
7,CCc1ccc([S+](c2ccc(OC)cc2)c2ccc(CC)c(F)c2)cc1F [Compound A-28],26.4 g
8,Cc1ccc([SH](c2ccc(Sc3ccc(C(=O)c4ccccc4)cc3)cc2)c2ccc(C)c(F)c2)cc1F [Compound A-30],27.8 g
9,CCc1ccc([S+](c2ccc(OC)cc2)c2ccc(CC)c(C(F)(F)F)c2)cc1C(F)(F)F [Compound A-31],27.6 g
10,CCc1ccc([S+](c2ccc(OCCO)cc2)c2ccc(CC)c([N+](=O)[O-])c2)cc1[N+](=O)[O-] [Compound A-32],28.2 g
11,COc1ccc([S+](c2ccc(Sc3ccccc3)cc2)c2ccc(OC)c(F)c2)cc1F [Compound A-35],24.8 g
12,Fc1cc([S+](c2ccc(Sc3ccccc3)cc2)c2ccc(Cc3ccccc3)c(F)c2)ccc1Cc1ccccc1 [Compound A-36],23.2 g
13,Cc1ccc([S+](c2ccc(/C=C/c3ccccc3)cc2)c2ccc(C)c(F)c2)cc1F [Compound A-37],22.4 g
14,Cc1ccc([S+](c2ccccc2)c2ccc(/C=C/c3ccccc3)cc2)cc1F (stereo not shown) [Compound A-38],23.5 g
15,"Fc1cccc([S+](c2ccccc2)c2ccccc2)c1 [Compound B-1, reference compound]",12.1 g
16,"Cc1ccc([S+](c2ccccc2)c2ccccc2)cc1 [Compound B-2, reference compound]",20.6 g

# Same assay, conditions: Table 4; maximum number of grams dissolved in 100 g 3-ethyl-3-hydroxymethyl oxetane monomer at 20° C.
row,Compound,Solubility
1,Cc1ccc([S+](c2ccc(Sc3ccc([S+](c4ccc(C)c(F)c4)c4ccc(C)c(F)c4)cc3)cc2)c2ccc(C)c(F)c2)cc1F [Compound C-1],24.4 g
2,Cc1ccc([S+](c2ccc(Sc3ccc([S+](c4ccc(C)c(C(F)(F)F)c4)c4ccc(C)c(C(F)(F)F)c4)cc3)cc2)c2ccc(C)c(C(F)(F)F)c2)cc1C(F)(F)F [Compound C-2],24.3 g
3,Cc1ccc([S+](c2ccc(Sc3ccc([S+](c4ccc(C)c([N+](=O)[O-])c4)c4ccc(C)c([N+](=O)[O-])c4)cc3)cc2)c2ccc(C)c([N+](=O)[O-])c2)cc1[N+](=O)[O-] [Compound C-3],23.4 g
4,Cc1ccc([S+](c2ccc(Sc3ccc([S+](c4ccc(C)c(C#N)c4)c4ccc(C)c(C#N)c4)cc3)cc2)c2ccc(C)c(C#N)c2)cc1C#N [Compound C-4],23.1 g
5,CCc1ccc([S+](c2ccc(Sc3ccc([S+](c4ccc(CC)c(F)c4)c4ccc(CC)c(F)c4)cc3)cc2)c2ccc(CC)c(F)c2)cc1F [Compound C-5],25.1 g
6,CCc1ccc([S+](c2ccc(Sc3ccc([S+](c4ccc(CC)c(C(F)(F)F)c4)c4ccc(CC)c(C(F)(F)F)c4)cc3)cc2)c2ccc(CC)c(C(F)(F)F)c2)cc1C(F)(F)F [Compound C-6],25.3 g
7,Cc1ccc([S+](c2ccc(/C=C/c3ccc([S+](c4ccc(C)c(F)c4)c4ccc(C)c(F)c4)cc3)cc2)c2ccc(C)c(F)c2)cc1F [Compound C-7],22.4 g
8,Cc1ccc([S+](c2ccc(Oc3ccc([S+](c4ccc(C)c(F)c4)c4ccc(C)c(F)c4)cc3)cc2)c2ccc(C)c(F)c2)cc1F [Compound C-8],23.7 g
9,Cc1ccc([S+](c2ccc(Cc3ccc([S+](c4ccc(C)c([N+](=O)[O-])c4)c4ccc(C)c([N+](=O)[O-])c4)cc3)cc2)c2ccc(C)c([N+](=O)[O-])c2)cc1[N+](=O)[O-] [Compound C-9],23.1 g
10,Cc1ccc([S+](c2ccc(-c3ccc([S+](c4ccc(C)c(F)c4)c4ccc(C)c(F)c4)cc3)cc2)c2ccc(C)c(F)c2)cc1F [Compound C-10],21.4 g
11,Cc1ccc([S+](c2ccc(-c3ccc([S+](c4ccc(C)c(C#N)c4)c4ccc(C)c(C#N)c4)cc3)cc2)c2ccc(C)c(C#N)c2)cc1C#N [Compound C-11],21.0 g
12,Cc1ccc([S+](c2ccc(Sc3ccc([S+](c4ccc(C)c(F)c4)c4ccc(C)c(F)c4)cc3C)c(C)c2)c2ccc(C)c(F)c2)cc1F [Compound C-12],25.3 g
13,Cc1ccc([S+](c2ccc(Sc3ccc([S+](c4ccc(C)c(C#N)c4)c4ccc(C)c(C#N)c4)cc3C)c(C)c2)c2ccc(C)c(C#N)c2)cc1C#N [Compound C-13],24.9 g
14,Fc1cc([S+](c2ccc(Sc3ccc([S+](c4ccc(Cc5ccccc5)c(F)c4)c4ccc(Cc5ccccc5)c(F)c4)cc3)cc2)c2ccc(Cc3ccccc3)c(F)c2)ccc1Cc1ccccc1 [Compound C-16],24.4 g
15,Cc1ccc([S+](c2ccccc2)c2ccc(Sc3ccc([S+](c4ccccc4)c4ccc(C)c(F)c4)cc3)cc2)cc1F (stereo not shown) [Compound C-17],21.5 g
16,COc1ccc([S+](c2ccccc2)c2ccc(Sc3ccc([S+](c4ccccc4)c4ccc(OC)c(F)c4)cc3)cc2)cc1F (stereo not shown) [Compound C-18],20.7 g
17,CC(C)c1ccc([S+](c2ccc(-c3ccc([S+](c4ccc(C(C)C)c(F)c4)c4ccc(C(C)C)c(F)c4)cc3)cc2)c2ccc(C(C)C)c(F)c2)cc1F [Compound C-19],24.8 g
18,Cc1ccc([S+](c2ccccc2)c2ccc(Sc3ccc([S+](c4ccccc4)c4ccc(C)c(C(F)(F)F)c4)cc3)cc2)cc1C(F)(F)F (stereo not shown) [Compound C-20],22.1 g
19,Cc1ccc([S+](c2ccc(C)c(F)c2)c2ccc3c(c2)Cc2cc([S+](c4ccc(C)c(F)c4)c4ccc(C)c(F)c4)ccc2-3)cc1F [Compound C-21],23.4 g
20,CCCCC1(CCCC)c2cc([S+](c3ccc(C)c(F)c3)c3ccc(C)c(F)c3)ccc2-c2ccc([S+](c3ccc(C)c(F)c3)c3ccc(C)c(F)c3)cc21 [Compound C-22],24.5 g
21,Cc1ccc([SH](c2ccc(C)c(F)c2)c2ccc3c(c2)oc2cc([SH](c4ccc(C)c(F)c4)c4ccc(C)c(F)c4)ccc23)cc1F [Compound C-23],23.6 g
22,Cc1ccc([S+](c2ccc(C)c(F)c2)c2ccc3c(c2)sc2cc([S+](c4ccc(C)c(F)c4)c4ccc(C)c(F)c4)ccc23)cc1F [Compound C-24],23.5 g
23,CCn1c2cc([SH](c3ccc(C)c(C(F)(F)F)c3)c3ccc(C)c(C(F)(F)F)c3)ccc2c2ccc([SH](c3ccc(C)c(C(F)(F)F)c3)c3ccc(C)c(C(F)(F)F)c3)cc21 [Compound C-25],22.8 g
24,"Fc1cccc([S+](c2ccccc2)c2ccc(Sc3ccc([S+](c4ccccc4)c4cccc(F)c4)cc3)cc2)c1 [Compound D-1, reference compound]",11.5 g
25,"Cc1ccc([S+](c2ccccc2)c2ccc(Sc3ccc([S+](c4ccccc4)c4ccc(C)cc4)cc3)cc2)cc1 [Compound D-2, reference compound]",19.3 g

# From patent publication US11746085B2, “Triphenylsulfonium salt compound, and uses thereof” (Changzhou Tronly Advanced Electronic Materials Co., Ltd., priority 2018, dated 2023)
